Results from US4950686A, “Anti-mycoplasma agent” (Shionogi & Co., Ltd., priority 1986, dated 1990).
Converted amounts (≈) assume the structure as drawn. Where a name gives a salt, the structure may show the parent alone. Read-outs that look alike come from different tables or passages of the source. One block for each compound: values may come before it.

Key:
[1] = system: Mycoplasma gallisepticum S6 (standard strain); assay: Anti-mycoplasma activity in vitro (MIC, broth dilution), strain S6; assay type: cell-based; conditions: Mg S6, 37° C., 7 days
Protocol: (§1) (1) Anti-mycoplasma activity test in vitro
(§2) MIC values of each of Tropolones were measured on the following strains according to the following method.
(§3) (a) Mycoplasma gallisepticum
(§4) Medium: Chick PPLO broth supplemented with 20% equine serum (Eiken Kagaku Co., Ltd.)
(§5) Method: Broth dilution method
(§6) Inoculum: Culture incubated at 37° C. for 24-48 hr which is diluted with broth to 10^6 CCU/ml immediately before the use.
(§7) To 1.6 ml of the broth is added 0.2 ml of an agent which has been subjected to 2-fold dilution and then added 0.2 ml of inoculum, which is incubated at 37° C. for 7 days.

[2] = system: Mycoplasma gallisepticum MR-1 (wild strain, tylosin-resistant); assay: Anti-mycoplasma activity in vitro (MIC, broth dilution), strain MR-1; assay type: cell-based; conditions: Mg MR-1, 37° C., 7 days
Protocol: as §1, §2, §3
MR-1 (wild strain, tylosin-resistant)
as §4, §5, §6, §7

[3] = system: Mycoplasma gallisepticum T-7-T (wild strain, tylosin-resistant); assay: Anti-mycoplasma activity in vitro (MIC, broth dilution), strain T-7-T; assay type: cell-based; conditions: Mg T-7-T, 37° C., 7 days
Protocol: as §1, §2, §3
T-7-T (wild strain, tylosin-resistant)
as §4, §5, §6, §7

[4] = system: Mycoplasma hyopneumoniae ST-11 (standard strain); assay: Anti-mycoplasma activity in vitro (MIC, broth dilution), strain ST-11; assay type: cell-based; conditions: Mh ST-11
Protocol: as §1, §2
(b) Mycoplasma hyopneumoniae
Strain: ST-11 (standard strain)
Medium: 850 ml of Hanks' solution supplemented with 0.5% lactoalbumin, 50 ml of 25% yeast, 100 ml of equine serum and 4-6 ml of 0.5% phenol red (pH 7.4-7.6)
as §5
Inoculum: Culture which is incubated for 3-4 days and diluted 10 times with the broth if color of the broth becomes yellow then. If it needs over 4 days until color of the broth becomes yellow, it is further subcultured. This is diluted 10 times with the broth to give inoculum.
Assay is done in the same manner as in the above (a).

[5] = system: Mycoplasma gallisepticum S6 (standard strain); assay: Mycoplasma gallisepticum air-sac infection method in chicken, strain S6; assay type: in vivo, Mycoplasma gallisepticum; SPF chicken (white leghorn); conditions: 200 mg/kg × once oral, 20 mg/ml sol. c; for Index of Isolation: inoculum 6.3 × 10^4, trachea ND, range 0-6.0
Protocol: (2) Test of Effectiveness Mycoplasma gallisepticum air-sac infection method
Inoculation: To the right air-sac of 9 days old SPF chicken (a white leghorn) which has abstained from water and feed one day before is inoculated 0.20-0.25 ml/chicken of fresh mycoplasma culture incubated for 24-48 hr and diluted with broth (usually 100 times). The concentration in Table 2 is shown in a unit of mg/ml.
Medium: Chick PPLO broth supplemented with 15% equine serum (Eiken Kagaku Co., Ltd.)
Administration: A compound of this invention dissolved or suspended in the following solution is orally and forcibly administered once by a cannula immediately after the infection.
Anatomization and Isolation of Microorganism: The chickens are anatomized 5 days after the infection, and the right and left air sacs are investigated whether they are attacked with a disease or not. The change caused by the disease is represented in four degrees; -: no change, +: slight, ++: medium and +++: serious. Microorganism is isolated from the right and left air-sacs and the trachea by using a sterilized applicator.
Judgement: Judgement is done through an index of an air-sac disease and an index of a microorganism-isolation.
Index of an air-sac-disease: First, indexes in the right and left air-sacs are separately calculated according to the following formula;
{degree of disease (0-3)×chickens}/anatomized chickens
and the index is calculated by the following formula;
(index of right air-sac)×1+(index of left air-sac)×2
Index of a microorganism isolation:
P: chickens from the right air-sac of which microorganism is isolated,
Q: chickens from the trachea of which microorganism is isolated,
R: chickens from the left air-sac of which microorganism is isolated, and
S: chickens investigated.

[6] = inoculum 6.3 × 10^4, calcium salt
[7] = Mycoplasmoides gallisepticum, 168 h, read-out: MIC

Compound: O=c1cccccc1O.O=c1cccccc1O.[Cu] [Compound 2, Tropolone copper complex]
MIC [1]: 3.13 µg/mL | MIC [2]: 3.13 µg/mL | MIC [3]: 3.13 µg/mL | MIC [4]: 0.78 µg/mL

Compound: O=c1cccccc1[O-].O=c1cccccc1[O-].[Ni+2] [Compound 4, Tropolone nickel complex]
MIC [1]: 1.56 µg/mL | MIC [2]: 3.13 µg/mL | MIC [3]: 3.13 µg/mL | MIC [4]: 0.78 µg/mL

Compound: O=c1cccccc1O [Compound 5, Tropolone calcium salt]
Change of air-sac, left: + (chickens) ([5]; inoculum 6.3 × 10^4): 0 | Change of air-sac, left: ++ (chickens) ([5]; inoculum 6.3 × 10^4): 0 | Change of air-sac, left: +++ (chickens) ([5]; inoculum 6.3 × 10^4): 0 | Change of air-sac, left: - (chickens) ([5]; inoculum 6.3 × 10^4): 5 | Change of air-sac, right: ++ (chickens) ([5]; inoculum 6.3 × 10^4): 0 | Change of air-sac, right: +++ (chickens) ([5]; inoculum 6.3 × 10^4): 0 | Isolation, L (left air-sac) ([5]; inoculum 6.3 × 10^4): 0 | Isolation, R (right air-sac) ([5]; inoculum 6.3 × 10^4): 1 | Mycoplasma Isolated Chickens ([5]; inoculum 6.3 × 10^4): 1 | Change of air-sac, right: + (chickens) [5, 6]: 0 | Change of air-sac, right: - (chickens) [5, 6]: 5 | Index of Disease ([5]; inoculum 6.3 × 10^4, range 0-9.0, calcium salt): 0 | Index of Isolation [5]: 0.2 | MIC ([1]; calcium salt): 3.13 µg/mL | MIC ([2]; calcium salt): 1.56 µg/mL

Compound: O=c1cccccc1O [Compound 6, Tropolone magnesium salt]
MIC [1]: 1.56 µg/mL | MIC [2]: 1.56 µg/mL | MIC [3]: 1.56 µg/mL | MIC [4]: 0.78 µg/mL

Compound: O=c1cccccc1O [Compound 8, Tropolone sodium salt]
MIC ([1]; sodium salt): 1.56 µg/mL | MIC ([2]; sodium salt): 1.56 µg/mL | MIC ([3]; sodium salt): 1.56 µg/mL | MIC ([4]; sodium salt): 0.78 µg/mL

Compound: O=c1cccccc1O [Compound 9, Tropolone ethanolamine salt]
Change of air-sac, left: + (chickens) ([5]; inoculum 6.3 × 10^4): 0 | Change of air-sac, left: ++ (chickens) ([5]; inoculum 6.3 × 10^4): 0 | Change of air-sac, left: +++ (chickens) ([5]; inoculum 6.3 × 10^4): 0 | Change of air-sac, left: - (chickens) ([5]; inoculum 6.3 × 10^4): 5 | Change of air-sac, right: + (chickens) ([5]; inoculum 6.3 × 10^4): 1 | Change of air-sac, right: ++ (chickens) ([5]; inoculum 6.3 × 10^4): 0 | Change of air-sac, right: +++ (chickens) ([5]; inoculum 6.3 × 10^4): 0 | Change of air-sac, right: - (chickens) ([5]; inoculum 6.3 × 10^4): 4 | Isolation, L (left air-sac) ([5]; inoculum 6.3 × 10^4): 0 | Isolation, R (right air-sac) ([5]; inoculum 6.3 × 10^4): 1 | Mycoplasma Isolated Chickens ([5]; inoculum 6.3 × 10^4): 1 | Index of Disease ([5]; inoculum 6.3 × 10^4, range 0-9.0): 0.2 | Index of Isolation [5]: 0.2 | MIC [1]: 3.13 µg/mL | MIC [2]: 3.13 µg/mL

Compound: O=c1cccccc1O [Compound 10, Tropolone n-propylamine salt]
MIC [1]: 3.13 µg/mL | MIC [2]: 3.13 µg/mL | MIC [3]: 3.13 µg/mL | MIC [4]: 0.78 µg/mL

MIC [1, 7]: 6.25 µg/mL (≈ 27.6 µM) | MIC [2, 7]: 6.25 µg/mL (≈ 27.6 µM) | MIC [3, 7]: 6.25 µg/mL (≈ 27.6 µM) | MIC ([4]; Mesomycoplasma hyopneumoniae, read-out: MIC): 0.78 µg/mL (≈ 3.45 µM)
Compound: O=C(Oc1cccccc1=O)c1ccccc1 [Compound 14, O-Benzoyltropolone]
